This passage reports Diacetylspermine and production of diacetylspermine results from patent US8404434B2, “Method for determining degree of negative effect of macrophages on vertebrate” (Yamasa Corporation, priority 2006, dated 2013).

Assay [1] concerns Peritoneal macrophages. Kind of assay: Diacetylspermine production by cultured macrophages with the tricarboxylate carrier inhibitor BTA. In kind it is cell-based, mice. How it is done: (§1) Peritoneal macrophages collected from mice injected with thioglycollate were inoculated into a 96-well microplate (1.25×10^5 cells/well), followed by culturing. In this case, cell culture was performed by use of RPMI 1640 medium containing 10% horse serum, the medium being supplemented with spermine (i.e., a raw material of diacetylpolyamine) (10 μM) and glucose (0, 1, or 2 g/L).
(§2) After completion of culturing, the levels of diacetylspermine and residual glucose contained in the medium were measured through a customary method. As is clear from FIG. 1, diacetylspermine is produced in response to depletion of glucose.
In order to examine the origin of acetyl CoA (i.e., a raw material of diacetylpolyamine), 1,2,3-benzyltricarboxylate (BTA), which is an inhibitor of a tricarboxylate carrier used for transportation of citrate from mitochondria to the cytoplasm, was added in an amount of 10 mM to a medium supplemented with no glucose, followed by measurement of diacetylspermine level.

Assay [2] concerns Peritoneal macrophages. Description: Diacetylspermine production by cultured macrophages with the uncoupler DNP. The settings on record: DNP 100 μM in medium, glucose 2 g/L, spermine 10 μM, cultured for two days; level in medium. In kind it is cell-based, mice. As for the experimental part:
as §1, §2
Dinitrophenol (DNP), which is a reagent called “uncoupler” that forcibly reduces the active potential of mitochondria, is added to a medium in an amount of 100 μM, followed by culturing for two days in a manner similar to that described above. After completion of culturing, diacetylspermine level was measured. The medium was supplemented with glucose in an amount of 2 g/L.

The compound `O=C(O)c1cccc(C(=O)O)c1C(=O)O` [BTA, 1,2,3-benzyltricarboxylate] registered a Diacetylspermine in the assay with Peritoneal macrophages [1] (BTA 10 mM in medium supplemented with no glucose, level in medium) of 43.0 nM. Also, in the assay on Peritoneal macrophages [1] (BTA 10 mM, medium without glucose, result in words), the production of diacetylspermine entry is “inhibited”.
`O=[N+]([O-])c1ccc(O)c([N+](=O)[O-])c1` [DNP, Dinitrophenol] displayed a Diacetylspermine with Peritoneal macrophages [2] of 61.8 nM.
